The structures appear in SMILES notation.

Assay [1] addresses T1, PD-L1 (Homo sapiens, UniProt Q9NZQ7).
T1 construct: determine if they can specifically dimerize the extracellular domains of PD-L1
Nature of the assay: PD-L1/PD-L1 dimerization biochemical protein-protein interaction assay (ALPHA). It counts as binding. The conditions noted are these: compound-induced PD-L1 dimerization, head prints '1 nM' (0.5 nM His-tagged PD-L1 and 0.5 nM FLAG-tagged PD-L1), read-out: AC50 PDL1 Dimer Alpha 1 nM. A digest of the protocol: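 ALPHA proximity assay of compound-induced dimerization of 0.5 nM His-tagged and 0.5 nM FLAG-tagged PD-L1 extracellular domains in Hepes pH 7.4 buffer, 2 h at 25 °C. Anti-His acceptor then anti-FLAG donor beads, 60 min each; AC50 from four-parameter fit.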

Assay [2] addresses PD-1/PD-L1 (Homo sapiens, UniProt Q9NZQ7). Nature of the assay: PD-1/PD-L1 biochemical protein-protein interaction assay (ALPHA). The assay is classed as binding. Conditions: 0.3 nM His tagged PD-L1, 2.5 nM biotinylated Fc-PD-1, 60 minutes at 25° C., read-out: IC50 PD-L1-PD-1 Alpha IC50-mono PD-L1-fcP-D1. Put shortly:
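ALPHA bead proximity assay of extracellular domains: 0.3 nM His-PD-L1 with 2.5 nM biotinylated Fc-PD-1 in 25 mM Hepes pH 7.4, 150 mM NaCl, 3.4 mM EDTA, 0.005% Tween 20, 0.01% BSA, 60 min at 25 °C. Anti-His acceptor and streptavidin donor beads added; IC50 from four-parameter fit of signal loss.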

Assay [3] deals with T2, PD-1/PD-L1 interaction (Homo sapiens, UniProt Q9NZQ7).
T2 construct: expressed in transfected cells; host or cells: CHO cells (aAPC-PD-L1) co-cultured with Jurkat cells overexpressing PD-1 and an NFAT-luciferase reporter
Description: PD-1/PD-L1 NFAT reporter co-culture assay. The assay is classed as cell-based. The conditions noted are these: Jurkat PD-1 NFAT-luciferase cells co-cultured with aAPC-PD-L1 CHO cells, 6 hrs at 37° C.; read-out: EC50 NFAT Luciferase. Put shortly:
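Restoration of TCR-driven NFAT luciferase signal: 6 h, 37 °C co-culture of PD-1 Jurkat reporter cells (pre-mixed with compound) on overnight-seeded PD-L1/anti-CD3 CHO monolayer. ONE-Glo luminescence; dose-response fitted to four-parameter equation for EC50.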

T2 sequence (Q9NZQ7 19-290): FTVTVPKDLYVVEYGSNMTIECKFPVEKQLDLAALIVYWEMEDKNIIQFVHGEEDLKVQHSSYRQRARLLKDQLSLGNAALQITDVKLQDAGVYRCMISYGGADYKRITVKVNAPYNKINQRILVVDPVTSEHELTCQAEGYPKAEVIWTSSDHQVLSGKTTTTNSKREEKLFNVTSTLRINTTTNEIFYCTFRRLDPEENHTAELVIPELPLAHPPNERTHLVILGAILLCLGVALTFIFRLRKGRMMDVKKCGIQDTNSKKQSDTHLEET
T1 sequence (Q9NZQ7 19-238 limits assumed): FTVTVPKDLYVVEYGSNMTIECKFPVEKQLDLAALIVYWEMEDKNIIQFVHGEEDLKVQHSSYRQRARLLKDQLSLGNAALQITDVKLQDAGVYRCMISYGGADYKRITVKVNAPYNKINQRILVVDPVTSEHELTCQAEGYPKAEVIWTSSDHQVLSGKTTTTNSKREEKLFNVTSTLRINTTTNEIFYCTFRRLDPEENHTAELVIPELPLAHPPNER
T1 sequence (Q9NZQ7 19-238 limits assumed): as above
PD-1/PD-L1, sequence (Q9NZQ7 19-238 limits assumed): as above

For orientation: AC50 means the midpoint of the concentration-response curve, whichever way the signal moves. Usually IC50 stands for the concentration that gives 50% inhibition. By EC50 is commonly meant the concentration needed to bring the measured effect to its halfway point. For the compound `COc1nc(-c2cccc(-c3cccc(COc4cc(OCc5cncc(C#N)c5)c(CN5CC[C@@H](O)C5)cc4Cl)c3C)c2C)ccc1CNC[C@@H](O)CC(=O)O` [Example 307, (S)-4-(((6-(3′-((2-chloro-5-((5-cyanopyridin-3-yl)methoxy)-4-(((R)-3-hydroxypyrrolidin-1-yl)methyl)phenoxy)methyl)-2,2′-dimethyl-[1,1′-biphenyl]-3-yl)-2-methoxypyridin-3-yl)methyl)amino)-3-hydroxybutanoic acid], the AC50 in assay [1] stood at 599 nM. In addition, the IC50 in assay [2] is 0.536 nM. The EC50 in assay [3] stood at 702 nM.

Take `Cc1c(COc2cc(OCc3cncc(C#N)c3)c(CN[C@@](C)(CO)C(=O)O)cc2Cl)cccc1-c1cccc(-c2ccc(OCCc3cccnc3)c(CNCCO)c2)c1C` [Example 364, (S)-2-((5-chloro-2-((5-cyanopyridin-3-yl)methoxy)-4-((3″-(((2-hydroxyethyl)amino)methyl)-2,2′-dimethyl-4″-(2-(pyridin-3-yl)ethoxy)-[1,1′:3′,1″-terphenyl]-3-yl)methoxy)benzyl)amino)-3-hydroxy-2-methylpropanoic acid]: in assay [1], the AC50 turned out to be 98.3 nM. Besides, the IC50 in assay [2] is 0.304 nM. Moreover, the EC50 in assay [3] was found to be 353 nM.

Take `Cc1c(COc2cc(OCc3cncc(C#N)c3)c(CNC[C@@H](O)CC(=O)O)cc2Cl)cccc1-c1cccc(COc2cc(OCc3cncc(C#N)c3)c(CNC[C@@H](O)CC(=O)O)cc2Cl)c1C` [Example 66, (3S,3′S)-4,4′-((((((2,2′-dimethyl-[1,1′-biphenyl]-3,3′-diyl)bis(methylene))bis(oxy))bis(5-chloro-2-((5-cyanopyridin-3-yl)methoxy)-4,1-phenylene))bis(methylene))bis(azanediyl))bis(3-hydroxybutanoic acid)]: the AC50 in assay [1] came out at 370 nM. The concentration for half-maximal inhibition (IC50) in assay [2] amounted to 0.4 nM. Further, the half-maximal effective concentration (EC50) in assay [3] amounted to 338 nM.

With `Cn1cc(CN2CC3(CCC(=O)N3)C2)c2ccc(-c3cccc(-c4cccc(-c5ccc6c(CN7CC8(CCC(=O)N8)C7)cn(C)c6n5)c4Cl)c3Cl)nc21` [Example 476], the AC50 in assay [1] came out at 149 nM. For the same compound, the IC50 in assay [2] was found to be 1.11 nM. Moreover, in assay [3], the EC50 turned out to be 196 nM.

For the compound `C[C@@](CO)(NCc1cc(Br)c(O[C@H]2CCc3c(-c4cccc(-c5ccc(OCCNCCO)cc5)c4Cl)cccc32)nc1OCc1cncc(C#N)c1)C(=O)O` [Example 663], in assay [1], the AC50 was 6.56 nM. In assay [2], the IC50 amounted to 0.064 nM. The EC50 in assay [3] stood at 118 nM.

Regarding `Cc1c(COc2nc(OCc3cncc(C#N)c3)c(CN[C@@](C)(CO)C(=O)O)cc2Cl)cccc1-c1cccc(-c2ccc3c(c2)CC[C@@]3(CO)N(C)C)c1C` [Example 305, (S)-2-(((5-chloro-2-((5-cyanopyridin-3-yl)methoxy)-6-((3′-((R)-1-(dimethylamino)-1-(hydroxymethyl)-2,3-dihydro-1H-inden-5-yl)-2,2′-dimethyl-[1,1′-biphenyl]-3-yl)methoxy)pyridin-3-yl)methyl)amino)-3-hydroxy-2-methylpropanoic acid], the AC50 in assay [1] was 150 nM. Further, the IC50 in assay [2] was 0.158 nM. Also, the EC50 in assay [3] was found to be 1770 nM.

`COc1nc(-c2cccc(-c3cccc4c3CC[C@@H]4Oc3nc(OC)c(CN4CC[C@@H](C(=O)O)C4)cc3Cl)c2Cl)ccc1CNC[C@@H]1CCC(=O)N1` [Example 769]: the concentration at half-maximal activity (AC50) in assay [1] is 28.1 nM. In assay [2], the IC50 came to 0.064 nM. For the same compound, in assay [3], the EC50 worked out at 25 nM.

With `COc1nc(O[C@H]2CCc3c(-c4cccc(-c5cc(C)c(CNC[C@@H]6CCC(=O)N6)c(OC)n5)c4Cl)cccc32)c(Cl)cc1CN1CC(C(=O)O)C1` [Example 487], the AC50 in assay [1] turned out to be 25.2 nM. Moreover, the IC50 in assay [2] turned out to be 0.064 nM. Further, the concentration for a half-maximal effect (EC50) in assay [3] was 16 nM.

As for `COc1nc(O[C@H]2CCc3c(-c4cccc(-c5cnc6c(CNC[C@@H]7CCC(=O)N7)cn(C)c6n5)c4Cl)cccc32)c(Cl)cc1CN1CCC[C@@H](C(=O)O)C1` [Example 526], the AC50 in assay [1] amounted to 73.6 nM. For the same compound, the 50% inhibitory concentration (IC50) in assay [2] was found to be 0.064 nM. For the same compound, the 50% effective concentration (EC50) in assay [3] was 110 nM.
